Reference: patent US20240300886A1, “ARYLCYCLOHEXYLAMINE DERIVATIVES AND THEIR USE IN THE TREATMENT OF PSYCHIATRIC DISORDERS” (GILGAMESH PHARMACEUTICALS, INC., priority 2021, published 2024)
Where two headings read alike, the source gives them in different places.

Experiments:
[1] = Metabolic stability in rat liver microsomes (RLM); assay type: in vitro ADME, Sprague Dawley rats
Procedure: (§1) RLM Stability. Pooled RLM from male Sprague Dawley rats (XenoTech R1000) were used. Microsomal incubations were carried out in multi-well plates. Liver microsomal incubation medium consisted of PBS (100 mM, pH 7.4), MgCl2 (1 mM), and NADPH (1 mM), with 0.50 mg of liver microsomal protein per mL. Control incubations were performed by replacing the NADPH-cofactor system with PBS. Test compounds (1 μM, final solvent concentration 1.0%) were incubated with microsomes at 37° C. with constant shaking. Six time points over 60 minutes were analyzed, with 60 μL aliquots of the reaction mixture being drawn at each time point. The reaction aliquots were stopped by adding 180 μL of cold (4° C.) acetonitrile containing 200 ng/mL tolbutamide and 200 ng/mL labetalol as internal standards (IS), followed by shaking for 10 minutes, and then protein sedimentation by centrifugation at 4,000 rpm for 20 minutes at 4° C. Supernatant samples (80 μL) were diluted with water (240 μL) and analyzed for parent compound remaining using a fit-for-purpose liquid chromatography-tandem mass spectrometry (LC-MS/MS) method.
(§2) Data Analysis. The elimination constant (kel), half-life (t1/2) and intrinsic clearance (Clint) were determined in a plot of […] versus time, using linear regression analysis.

[2] = Metabolic stability in mouse liver microsomes (MLM); assay type: in vitro ADME, CD-1 mice; details: male, CD-1, mouse, pooled mouse liver microsomes, pH 7.4, 1 μM compound, 0.50 mg protein/mL, NADPH
Procedure: as §1, with “MLM” for “RLM”, “CD-1 mice” for “Sprague Dawley rats”, “M1000)” for “R1000)”
Data Analysis. The elimination constant (kel), half-life (t1/2) and intrinsic clearance (Clint) were determined in a plot of ln(AUC) versus […], using linear regression analysis.

[3] = Metabolic stability in human liver microsomes (HLM); assay type: in vitro ADME; details: 0.50 mg protein/mL, NADPH; for Clint: 1 μM compound; for half-life at 1 μM: both sexes, human, pooled human liver microsomes, pH 7.4, 1 μM compound
Procedure: HLM Stability. Pooled HLM from adult male and female donors (Corning 452117) were used. Microsomal incubations were carried out in multi-well plates. Liver microsomal incubation medium consisted of PBS (100 mM, pH 7.4), MgCl2 (1 mM), and NADPH ([…]), with 0.50 mg of liver microsomal protein per mL. Control incubations were performed by replacing the NADPH-cofactor system with PBS. Test compounds (1 μM, final solvent concentration 1.0%) were incubated with microsomes at 37° C. with constant shaking, Six time points over 60 minutes were analyzed, with 60 μL aliquots of the reaction mixture being drawn at each time point. The reaction aliquots were stopped by adding 180 μL of cold (4° C.) acetonitrile containing 200 ng/mL tolbutamide and 200 ng/mL labetalol as internal standards (IS), followed by shaking for 10 minutes, and then protein sedimentation by centrifugation at 4,000 rpm for 20 minutes at 4° C. Supernatant samples (80 μL) were diluted with water (240 μL) and analyzed for parent compound remaining using a fit-for-purpose liquid chromatography-tandem mass spectrometry (LC-MS/MS) method.
as §2

[4] = Comparative metabolism/PK of 2R and deuterated 7R in rats after oral administration; assay type: in vivo, Sprague Dawley rats; details: for concentration at 0.083 h / concentration at 0.25 h / concentration at 0.5 h / concentration at 1 h / concentration at 2 h / concentration at 4 h: oral; for concentration at 0.083 h: 0.083 h after 10 mg/kg po of 2R or 7R; for concentration at 0.25 h: 0.25 h after 10 mg/kg po of 2R or 7R; for concentration at 0.5 h: 0.5 h after 10 mg/kg po of 2R or 7R; for concentration at 1 h: 1 h after 10 mg/kg po of 2R or 7R; for concentration at 2 h: 2 h after 10 mg/kg po of 2R or 7R; for concentration at 4 h: 4 h after 10 mg/kg po of 2R or 7R
Procedure: Animals. Male Sprague Dawley rats were used in these studies. Animals were randomly assigned to treatment groups and were fasted for 4 h before dosing.
Drugs. Test compounds 2R and 7R were dissolved in a vehicle consisting of normal saline. They were then administered orally (po) at a dose of 10 mg/kg (calculated based on freebase), and at a volume of 5 mL/kg body weight.
Sample Collection and Bioanalysis. Blood samples (approximately 60 μL) were collected under light isoflurane anesthesia (Surgivet®) from the retro orbital plexus at 0.08, 0.25, 0.5, 1, 2, 4, 8, and 24 h (4 animals per time point). Immediately after blood collection, plasma was harvested by centrifugation at 4,000 rpm for 10 min at 4° C. and samples were stored at −70±10° C. until bioanalysis. Following blood collection, animals were immediately sacrificed, the abdominal vena-cava was cut open, and the whole body was perfused from the heart using 10 mL of normal saline, and brain samples were collected from all animals. After isolation, brain samples were rinsed three times in ice-cold normal saline (for 5-10 seconds/rinse using ˜5-10 mL normal saline in disposable petri dish for each rinse) and dried on blotting paper. Brain samples were homogenized using ice-cold phosphate-buffered saline (pH 7.4) Total homogenate volume was three times the tissue weight. All homogenates were stored at −70±10° C. until bioanalysis. For bioanalysis, 25 μL aliquots of plasma/brain study samples or spiked plasma/brain calibration standards were added to individual pre-labeled micro-centrifuge tubes followed by 100 μL of an internal standard solution (glipizide, 500 ng/mL in acetonitrile) except for blanks, where 100 μL of acetonitrile was added. Samples were vortexed for 5 minutes and then centrifuged for 10 minutes at 4,000 rpm at 4° C. Following centrifugation, 100 μL of each clear supernatant was transferred to a 96 well plate and analyzed with a fit-for-purpose LC-MS/MS method, with authentic samples of each analyte used for calibration and identification. Concentrations of parent compound (2R or 7R) and metabolite 1R were determined in all samples.
Data Analysis. Pharmacokinetic parameters were estimated using the non-compartmental analysis tool of Phoenix® WinNonlin software (Ver 8.0).

[5] = male, Sprague Dawley, rat, pooled rat liver microsomes, pH 7.4, 1 μM compound, 0.50 mg protein/mL, NADPH
[6] = male, Sprague Dawley, rat, brain, 10 mg/kg, rat brain, read-out: Mean brain concentration
[7] = male, Sprague Dawley, rat, plasma, 10 mg/kg, rat plasma, read-out: Mean plasma concentration
[8] = rat brain after 10 mg/kg po of 2R or 7R, parent or metabolite 1R as labelled

NC1(c2ccc(F)cc2)CCCCC1=O (racemic) [Compound 1, 2-amino-2-(4-fluorophenyl)cyclohexan-1-one]
metabolic stability in RLM (in words) [1]: much greater stability
half-life at 1 μM [1, 5]: > 2.42 h
microsomal CLint at 1 μM [1, 5]: < 9.6 µL/min/mg
half-life at 1 μM [2]: > 2.42 h
microsomal CLint at 1 μM [2]: < 9.6 µL/min/mg
Clint [3]: <9.6 μL/min/m
half-life at 1 μM [3]: > 2.42 h

CNC1(c2ccc(F)cc2)CCCCC1=O (racemic) [Compound 2]
metabolic stability in RLM (in words) [1]: much greater stability
half-life at 1 μM [1, 5]: 1.18 h
half-life at 1 μM [2]: 1.68 h
Clint [3]: <9.6 μL/min/m
half-life at 1 μM [3]: > 2.42 h

NC1(c2cccc(F)c2)CCCCC1=O (racemic) [Compound 3, 2-amino-2-(3-fluorophenyl)cyclohexan-1-one]
metabolic stability in RLM (in words) [1]: much greater stability

[2H]C([2H])([2H])N[C@@]1(c2ccc(F)cc2)CCCCC1=O [Compound 7R]
concentration at 0.083 h [4, 6]: 98 ng/g
concentration at 0.25 h [4, 6]: 2090 ng/g
concentration at 0.5 h [4, 6]: 2200 ng/g
concentration at 1 h [4, 6]: 1770 ng/g
concentration at 2 h [4, 6]: 1420 ng/g
concentration at 4 h [4, 6]: 236 ng/g
half-life ([4]; male, Sprague Dawley, rat, brain, po, 10 mg/kg, rat brain after 10 mg/kg po of 2R or 7R, parent or metabolite 1R as labelled, read-out: t1/2 (brain)): 1.12 h
concentration at 0.083 h [4, 7]: 65 ng/mL
concentration at 0.25 h [4, 7]: 502 ng/mL
concentration at 0.5 h [4, 7]: 799 ng/mL
concentration at 1 h [4, 7]: 564 ng/mL
concentration at 2 h [4, 7]: 396 ng/mL
concentration at 4 h [4, 7]: 68 ng/mL
Cmax ([4]; male, Sprague Dawley, rat, plasma, po, 10 mg/kg, rat plasma after 10 mg/kg po of 2R or 7R, parent or metabolite 1R as labelled): 799 ng/mL
AUC(0-t) ([4]; male, Sprague Dawley, rat, plasma, po, 10 mg/kg, rat plasma after 10 mg/kg po of 2R or 7R, parent or metabolite 1R as labelled, read-out: AUC0-last (plasma) (converted)): 1650 ng·h/mL
half-life ([4]; male, Sprague Dawley, rat, plasma, po, 10 mg/kg, rat plasma after 10 mg/kg po of 2R or 7R, parent or metabolite 1R as labelled, read-out: t1/2 (plasma)): 1.08 h
AUC0-last (brain) [4, 8]: 330347 ng·min/g
Cmax (brain) [4, 8]: 2197 ng/g
exposure (AUC) in plasma and brain compared to non-deuterated 2R ([4]; rats, 10 mg/kg po): greater exposure

Cc1ccc(C2(N)CCCCC2=O)cc1 (centres unmarked) [Compound 10, 2-amino-2-(p-tolyl)cyclohexan-1-one]
half-life at 1 μM [1, 5]: 0.06 h

CNC1(c2ccc(C)cc2)CCCCC1=O (centres unmarked) [Compound 11, 2-(methylamino)-2-(p-tolyl)cyclohexan-1-one]
half-life at 1 μM [1, 5]: 0.055 h

Cc1cccc(C2(N)CCCCC2=O)c1 (centres unmarked) [Compound 12, 2-amino-2-(m-tolyl)cyclohexan-1-one]
half-life at 1 μM [1, 5]: 0.12 h
